From patent publication US20230295157A1, “3-(1H-IMIDAZOL-2-YL)-2,3,8,8A-TETRAHYDROINDOLIZIN-5(1H)-ONE DERIVATIVES USEFUL AS FACTOR XIA INHIBITORS” (JANSSEN PHARMACEUTICA NV, priority 2020, published 2023) come the findings set out here.

One assay has as its target Factor XIa (Homo sapiens (Human), UniProt P03951). In words: Factor XIa inhibition assay (FLINT) utilizing a fluorophore-quencher pair peptide substrate. The note with it: 30 min preincubation, kinetic reads over 30 min, read-out: FXIa Kin Inh IC50. It counts as biochemical. In a few lines: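 FXIa ([…]) preincubated 30 min with compound (11-point 3-fold dilution, top 100 nM, 2% DMSO), then 15 μM quenched FXI Arg146-based peptide added; Tris pH 7.5, CaCl2, BSA, CHAPS. Fluorescence 485/520 nm read kinetically every 5 min over 30 min at RT; IC50 by 4-parameter fit.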

The target in another assay is human plasma kallikrein (Homo sapiens (Human), UniProt P03952). Briefly: Kallikrein inhibition assay (FLINT) utilizing a quenched AMC peptide substrate. It counts as biochemical. Particulars: 30 min preincubation, kinetic reads over 30 min, Z-Gly-Pro-Arg-AMC substrate 50 μM; read-out: Kallikrein Kin Inh IC50. In a few lines:
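Enzyme (2 nM final) pre-incubated 30 min at room temperature with compound (11-point, 3-fold, top 1 μM, 2% DMSO), then 50 μM Z-Gly-Pro-Arg-AMC added in Tris pH 7.5 buffer. Kinetic fluorescence 340/440 nm every 5 min over 30 min; IC50 from 4-parameter logistic fit.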

The mark [1] stands for this setting: 5Fam-KLTRAETV-K5Tamra substrate 15 μM.

Like-named read-outs stand apart in the source and are kept apart here.

human plasma kallikrein, sequence (P03952 391-638): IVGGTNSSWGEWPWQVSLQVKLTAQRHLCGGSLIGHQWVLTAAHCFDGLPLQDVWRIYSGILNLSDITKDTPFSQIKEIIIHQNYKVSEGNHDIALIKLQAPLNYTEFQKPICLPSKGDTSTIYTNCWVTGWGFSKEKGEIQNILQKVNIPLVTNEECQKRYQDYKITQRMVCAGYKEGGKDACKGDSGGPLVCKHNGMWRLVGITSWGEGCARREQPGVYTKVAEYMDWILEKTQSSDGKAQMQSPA
human plasma kallikrein, sequence (P03952 20-390 partner): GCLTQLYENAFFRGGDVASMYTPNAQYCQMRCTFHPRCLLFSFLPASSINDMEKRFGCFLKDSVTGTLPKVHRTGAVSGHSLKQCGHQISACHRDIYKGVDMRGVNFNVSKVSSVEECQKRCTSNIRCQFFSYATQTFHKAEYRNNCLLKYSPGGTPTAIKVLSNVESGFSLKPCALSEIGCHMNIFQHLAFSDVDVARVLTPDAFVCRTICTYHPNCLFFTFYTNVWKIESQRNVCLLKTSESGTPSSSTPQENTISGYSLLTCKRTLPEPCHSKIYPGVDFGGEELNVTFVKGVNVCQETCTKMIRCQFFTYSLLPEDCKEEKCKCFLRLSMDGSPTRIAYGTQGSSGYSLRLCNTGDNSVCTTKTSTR
Factor XIa, sequence (P03951 388-625): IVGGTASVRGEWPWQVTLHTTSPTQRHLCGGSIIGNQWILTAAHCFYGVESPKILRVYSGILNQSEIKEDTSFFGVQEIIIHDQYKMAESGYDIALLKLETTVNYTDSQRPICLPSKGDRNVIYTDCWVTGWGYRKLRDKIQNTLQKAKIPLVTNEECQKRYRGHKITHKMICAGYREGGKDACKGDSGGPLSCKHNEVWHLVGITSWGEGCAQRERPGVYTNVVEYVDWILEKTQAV
Factor XIa, sequence (P03951 19-387 partner): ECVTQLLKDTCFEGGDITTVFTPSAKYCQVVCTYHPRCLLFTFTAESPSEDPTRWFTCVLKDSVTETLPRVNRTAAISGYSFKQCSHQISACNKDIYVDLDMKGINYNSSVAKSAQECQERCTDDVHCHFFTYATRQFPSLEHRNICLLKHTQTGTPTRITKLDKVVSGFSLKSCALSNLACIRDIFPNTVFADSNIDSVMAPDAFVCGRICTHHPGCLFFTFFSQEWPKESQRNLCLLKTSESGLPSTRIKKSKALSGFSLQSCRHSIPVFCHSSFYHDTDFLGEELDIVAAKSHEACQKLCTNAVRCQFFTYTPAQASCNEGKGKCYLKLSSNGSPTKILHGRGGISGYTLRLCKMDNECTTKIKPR

By IC50 is commonly meant the concentration that gives 50% inhibition. On to `COC(=O)Nc1cc(-c2cnc([C@@H]3CC[C@@H]4CC(c5c(-n6cnnn6)ccc(Cl)c5F)=CC(=O)N43)[nH]2)ccn1` [Example 99, Methyl (4-(2-((3S,8aR)-7-(3-chloro-2-fluoro-6-(1H-tetrazol-1-yl)phenyl)-5-oxo-1,2,3,5,8,8a-hexahydroindolizin-3-yl)-1H-imidazol-5-yl)pyridin-2-yl)carbamate], for which the 50% inhibitory concentration (IC50) stood at 2.3 nM on Factor XIa (setting [1]) and 3.2 nM on human plasma kallikrein.

Take `O=C1C=C(c2cc(Cl)ccc2-n2cc(C(F)(F)F)nn2)C[C@H]2CC[C@@H](c3ncc(-c4ccc5[nH]c(=O)ccc5c4)[nH]3)N12` [Example 101, 6-(2-((3S,8aR)-7-(5-chloro-2-(4-(trifluoromethyl)-1H-1,2,3-triazol-1-yl)phenyl)-5-oxo-1,2,3,5,8,8a-hexahydroindolizin-3-yl)-1H-imidazol-5-yl)quinolin-2(1H)-one]: the half-inhibitory concentration (IC50) on Factor XIa (setting [1]) came to 0.6 nM; on human plasma kallikrein it was 1.9 nM.

Consider `CONC(=O)c1nccc(-c2cnc([C@@H]3CC[C@@H]4CC(c5c(-n6cnnn6)ccc(Cl)c5F)=CC(=O)N43)[nH]2)c1F` [Example 103, 4-[2-[(3S,8aR)-7-[3-Chloro-2-fluoro-6-(tetrazol-1-yl)phenyl]-5-oxo-2,3,8,8a-tetrahydro-1H-indolizin-3-yl]-1H-imidazol-5-yl]-3-fluoro-N-methoxy-pyridine-2-carboxamide], for which the IC50 was 1.6 nM at Factor XIa (setting [1]) and 53.1 nM at human plasma kallikrein.

In the case of `O=C(NC12CC(C1)C2)c1nccc(-c2cnc([C@@H]3CC[C@@H]4CC(c5c(-n6cnnn6)ccc(Cl)c5F)=CC(=O)N43)[nH]2)c1F` [Example 104, N-(bicyclo[1.1.1]pentan-1-yl)-4-(2-((3S,8aR)-7-(3-chloro-2-fluoro-6-(1H-tetrazol-1-yl)phenyl)-5-oxo-1,2,3,5,8,8a-hexahydroindolizin-3-yl)-1H-imidazol-5-yl)-3-fluoropicolinamide], the results for the IC50 on Factor XIa (setting [1]) and at human plasma kallikrein were 16.6 nM and 35.4 nM, respectively.

Consider `O=C1CCCN1c1nccc(-c2cnc([C@@H]3CC[C@H]4CC(c5c(-n6cnnn6)ccc(Cl)c5F)=CC(=O)N43)[nH]2)c1F` [Example 105, (3S,8aS)-7-(3-chloro-2-fluoro-6-(1H-tetrazol-1-yl)phenyl)-3-(5-(3-fluoro-2-(2-oxopyrrolidin-1-yl)pyridin-4-yl)-1H-imidazol-2-yl)-2,3,8,8a-tetrahydroindolizin-5(1H)-one], for which the IC50 at Factor XIa (setting [1]) amounted to 62.9 nM; on human plasma kallikrein, 125 nM.

As to `O=C1CCCN1c1nccc(-c2cnc([C@@H]3CC[C@@H]4CC(c5c(-n6cnnn6)ccc(Cl)c5F)=CC(=O)N43)[nH]2)c1F` [Example 106, (3S,8aR)-7-(3-chloro-2-fluoro-6-(1H-tetrazol-1-yl)phenyl)-3-(5-(3-fluoro-2-(2-oxopyrrolidin-1-yl)pyridin-4-yl)-1H-imidazol-2-yl)-2,3,8,8a-tetrahydroindolizin-5(1H)-one], the IC50 on Factor XIa (setting [1]) is 11 nM; on human plasma kallikrein it was 27 nM.

Take `O=C1C=C(c2c(-n3cnnn3)ccc(Cl)c2F)C[C@H]2CC[C@@H](c3nc(F)c(-c4ccnc(CO)c4F)[nH]3)N12` [Example 107, (3S,8aR)-7-[3-chloro-2-fluoro-6-(tetrazol-1-yl)phenyl]-3-[4-fluoro-5-[3-fluoro-2-(hydroxymethyl)-4-pyridyl]-1H-imidazol-2-yl]-2,3,8,8a-tetrahydro-1H-indolizin-5-one]: the IC50 is 0.7 nM on Factor XIa (setting [1]) and 6.5 nM at human plasma kallikrein.

Regarding `[2H]c1nc([C@@H]2CC[C@@H]3CC(c4c(-n5cnnn5)ccc(Cl)c4F)=CC(=O)N32)[nH]c1-c1ccnc(C([2H])([2H])O)c1F` [Example 113, (3S,8aR)-7-[3-Chloro-2-fluoro-6-(tetrazol-1-yl)phenyl]-3-[4-deuterio-5-[2-[dideuterio(hydroxy)methyl]-3-fluoro-4-pyridyl]-1H-imidazol-2-yl]-2,3,8,8a-tetrahydro-1H-indolizin-5-one], the 50% inhibitory concentration (IC50) at Factor XIa (setting [1]) was 3.2 nM; at human plasma kallikrein it was 27.3 nM.

Regarding `O=C1OCCN1c1nccc(-c2cnc([C@@H]3CC[C@@H]4CC(c5c(-n6cnnn6)ccc(Cl)c5F)=CC(=O)N43)[nH]2)c1F` [Example 114, 3-[4-[2-[(3S,8aR)-7-[3-chloro-2-fluoro-6-(tetrazol-1-yl)phenyl]-5-oxo-2,3,8,8a-tetrahydro-1H-indolizin-3-yl]-1H-imidazol-5-yl]-3-fluoro-2-pyridyl]oxazolidin-2-one], the values for the half-inhibitory concentration (IC50) on Factor XIa (setting [1]) and at human plasma kallikrein were 9.4 nM and 55.9 nM, respectively.

Regarding `[2H]c1nc([C@@H]2CC[C@@H]3CC(c4c(-n5cnnn5)ccc(Cl)c4F)=CC(=O)N32)[nH]c1-c1ccnc(CO)c1F` [Example 117, (3S,8aR)-7-(3-chloro-2-fluoro-6-(1H-tetrazol-1-yl)phenyl)-3-(5-(3-fluoro-2-(hydroxymethyl)pyridin-4-yl)-1H-imidazol-2-yl-4-d)-2,3,8,8a-tetrahydroindolizin-5(1H)-one], the IC50 on Factor XIa (setting [1]) amounted to 2.9 nM; at human plasma kallikrein it was 24.8 nM.

`Nc1ccc(-c2cnc([C@@H]3CC[C@@H]4CC(c5cc(Cl)ccc5-n5cnnn5)=CC(=O)N43)[nH]2)c(F)n1` [Example 123, (3S,8aR)-3-[5-(6-amino-2-fluoro-3-pyridyl)-1H-imidazol-2-yl]-7-[5-chloro-2-(tetrazol-1-yl)phenyl]-2,3,8,8a-tetrahydro-1H-indolizin-5-one]: the figures for the IC50 at Factor XIa (setting [1]) and at human plasma kallikrein were 0.4 nM and 8.6 nM, respectively.

Regarding `[2H]c1cc(-c2cnc([C@@H]3CC[C@@H]4CC(c5cc(Cl)ccc5-n5cnnn5)=CC(=O)N43)[nH]2)c(F)nc1N` [Example 124, (3S,8aR)-3-[5-(6-amino-5-deuterio-2-fluoro-3-pyridyl)-1H-imidazol-2-yl]-7-[5-chloro-2-(tetrazol-1-yl)phenyl]-2,3,8,8a-tetrahydro-1H-indolizin-5-one], the concentration for half-maximal inhibition (IC50) turned out to be 0.4 nM at Factor XIa (setting [1]) and 11.6 nM at human plasma kallikrein.

Regarding `[2H]c1cc(-c2c[nH]c([C@@H]3CC[C@@H]4CC(c5c(F)c(Cl)cc([2H])c5-n5cnnn5)=CC(=O)N43)n2)c(F)nc1N` [Example 125, (3S,8aR)-3-(4-(6-amino-2-fluoropyridin-3-yl-5-d)-1H-imidazol-2-yl)-7-(3-chloro-2-fluoro-6-(1H-tetrazol-1-yl)phenyl-5-d)-2,3,8,8a-tetrahydroindolizin-5(1H)-one], the half-inhibitory concentration (IC50) turned out to be 0.5 nM at Factor XIa (setting [1]) and 9.6 nM at human plasma kallikrein.

Take `Nc1nccc(-c2cnc([C@@H]3CC[C@@H]4CC(c5c(-n6cnnn6)ccc(Cl)c5F)=CC(=O)N43)[nH]2)c1F` [Example 126, (3S,8aR)-3-[5-(2-amino-3-fluoro-4-pyridyl)-1H-imidazol-2-yl]-7-[3-chloro-2-fluoro-6-(tetrazol-1-yl)phenyl]-2,3,8,8a-tetrahydro-1H-indolizin-5-one]: the IC50 came out at 0.5 nM at Factor XIa (setting [1]) and 4.6 nM on human plasma kallikrein.

Consider `[2H]c1cc(Cl)c(F)c(C2=CC(=O)N3[C@H](CC[C@H]3c3nc([2H])c(-c4ccc(N)nc4F)[nH]3)C2)c1-n1cnnn1` [Example 129, (3S,8aR)-3-(5-(6-amino-2-fluoropyridin-3-yl)-1H-imidazol-2-yl-4-d)-7-(3-chloro-2-fluoro-6-(1H-tetrazol-1-yl)phenyl-5-d)-2,3,8,8a-tetrahydroindolizin-5(1H)-one], for which the IC50 came to 0.4 nM on Factor XIa (5Fam-[…]-K5Tamra substrate 15 μM) and 5.4 nM at human plasma kallikrein.

For the molecule `O=C1C=C(c2c(-n3cnnn3)ccc(Cl)c2F)C[C@H]2CC[C@@H](c3ncc(-c4ccnc(C5COC5)c4F)[nH]3)N12` [Example 130, (3S,8aR)-7-(3-chloro-2-fluoro-6-(1H-tetrazol-1-yl)phenyl)-3-(5-(3-fluoro-2-(oxetan-3-yl)pyridin-4-yl)-1H-imidazol-2-yl)-2,3,8,8a-tetrahydroindolizin-5(1H)-one], the 50% inhibitory concentration (IC50) at Factor XIa (setting [1]) worked out at 3.5 nM; at human plasma kallikrein it was 12.7 nM.

As to `CNc1nccc(-c2cnc([C@@H]3CC[C@@H]4CC(c5c(-n6cnnn6)ccc(Cl)c5F)=CC(=O)N43)[nH]2)c1F` [Example 134, (3S,8aR)-7-(3-chloro-2-fluoro-6-(1H-tetrazol-1-yl)phenyl)-3-(5-(3-fluoro-2-(methylamino)pyridin-4-yl)-1H-imidazol-2-yl)-2,3,8,8a-tetrahydroindolizin-5(1H)-one], the IC50 on Factor XIa (setting [1]) is 0.4 nM; at human plasma kallikrein it was 1.1 nM.

For the molecule `[2H]c1cc(-c2[nH]c([C@@H]3CC[C@@H]4CC(c5c(-n6cnnn6)ccc(Cl)c5F)=CC(=O)N43)nc2[2H])c(F)nc1N` [Example 145, (3S,8aR)-3-[5-(6-amino-5-deuterio-2-fluoro-3-pyridyl)-4-deuterio-1H-imidazol-2-yl]-7-[3-chloro-2-fluoro-6-(tetrazol-1-yl)phenyl]-2,3,8,8a-tetrahydro-1H-indolizin-5-one], the concentration for half-maximal inhibition (IC50) at Factor XIa (setting [1]) came to 0.6 nM; on human plasma kallikrein, 7.7 nM.

As to `[2H][C@]12CC[C@@H](c3ncc(-c4ccc(N)nc4F)[nH]3)N1C(=O)C=C(c1c(-n3cnnn3)ccc(Cl)c1F)C2` [Example 146, (3S,8aR)-3-[5-(6-amino-2-fluoro-3-pyridyl)-1H-imidazol-2-yl]-7-[3-chloro-2-fluoro-6-(tetrazol-1-yl)phenyl]-8a-deuterio-1,2,3,8-tetrahydroindolizin-5-one], the figures for the IC50 at Factor XIa (setting [1]) and at human plasma kallikrein were 0.5 nM and 7.3 nM, respectively.

As to `[2H]c1cc(-c2cnc([C@@H]3CC[C@@H]4CC(c5c(-n6cnnn6)ccc(Cl)c5F)=CC(=O)N43)[nH]2)c(F)nc1N` [Example 147, (3S,8aR)-3-[5-(6-amino-5-deuterio-2-fluoro-3-pyridyl)-1H-imidazol-2-yl]-7-[3-chloro-2-fluoro-6-(tetrazol-1-yl)phenyl]-2,3,8,8a-tetrahydro-1H-indolizin-5-one], the IC50 on Factor XIa (setting [1]) was determined as 0.5 nM; on human plasma kallikrein, 7.8 nM.
